One series concerns the target wild-type EGFR (Homo sapiens, UniProt P00533). Particulars: reportedly; cited from earlier work.
The subject of series [1] is A431 human squamous carcinoma cells (WT EGFR). The series is described as follows: Cell-based experiment on inhibition of WT-EGFR: cell proliferation of A431 cells. From the text: (§1) A431 cells are a model human cell line which express abnormally high levels of the wide-type epidermal growth factor receptor (WT EGFR). WT EGFR inhibitors can affect cell prolification of the cells. Similarly the prolification of HepG2 hepatoma cells can be inhibited by WT EGFR inhibitors.

The test system of another series is HepG2 hepatoma cells. The series is described as follows: Cell-based experiment on inhibition of WT-EGFR: cell proliferation of HepG2 hepatoma cells.
From the text: as §1

Series [2] is described as follows: Monkey pharmacokinetic study on deuteration of indole N-methyl group. Format: in vivo. Particulars: cynomolgus monkey, blood; male cynomolgus monkeys, single oral administration, 20 mg/Kg; read-out: AUC(0-t) of the parent. How it is done:
A total of two (2) cynomolgus monkeys (male) were placed on study. Washout period lasted 7 days between two phases. Each test article was administered to an individual animal via a single oral administration for all groups. The dose levels were 20 mg/Kg. All animals were given detailed clinical examinations prior to administration, and no abnormality was observed. Cage side observation was conducted on all animals twice daily throughout the duration of administration. All animals were weighed before dosing on the day of administration. Blood samples were collected predose and postdose 0.25, 0.5, 1, 2, 3, 4, 6, 8, 12, 24, 36 and 48 h from the femoral vein at appropriate time points for analysis. These samples were analyzed by LC-MS/MS.

The nature of series [3]: Reactivity as covalent inhibitor: half-life in buffered aqueous cysteine solution. Particulars: for half-life: PBS buffer with cysteine, 37° C.; for Improvement (%) of t½ in cysteine solution: deuterated compound vs. reference osimertinib. The protocol:
The combo solutions were prepared by mixing individual evaluated compounds with reference osimertinib. Then, they were added to PBS buffer solution with cysteine at 37° C. The stability time course samples (in triplicate) were taken and added to prechilled quenching solution and then store at −70° C. freezer. The samples were analyzed on a Waters Acquity UPLC system coupled with a Bruker Q-tof mass spectrometer. The peak areas of respective extracted ion chromatograms were used for relative comparison.

A short description of series [4]: Drug metabolism and pharmacokinetic evaluation in human liver microsome suspensions (percentage of compound remaining vs. incubation time). Conditions: human liver microsomes, NADPH, 37° C., after 4 hour, combo incubation with Osimertinib. The class given is in vitro ADME. How it is done: In vitro drug metabolism and pharmacokinetic evaluation of D16-Osimertinib, and D19-Osimertinib against Osimertinib was conducted in Human Liver Microsome suspensions. The stability time course samples were prepared in house and extracted immediately by protein precipitation method using MeCN containing 400 ng/mL carbutomide as the internal standard (IS). The samples were analyzed on a Waters Acquity UPLC system coupled with a Bruker Q-tof mass spectrometer. The peak areas of respective extracted ion chromatograms were used for relative comparison. The sample preparation was performed according to the following procedure: […] The samples were put in 37° C. incubator for 10 minutes. […] The samples were vortexed and centrifuged at 13,000 g for approximately 5 minutes, then supernatants were taken and stored in −20° C. freezer. The sampling at a time point was triplicate. After the last samples were taken and they were placed in −20° C. at least 1 hour. All samples were put into a refrigerator at approximate 4° C. for 30 minutes. The samples were vortexed. Then approximately 100 μL of the supernatants were transferred to corresponding wells of a 96-well plate. The samples were diluted with 100 μL of 0.1% FA in water. The samples were vortexed and briefly centrifuged for LC-HRMS analysis. Sample chamber for LC-HRMS was kept at approximate 4° C. […]
(Liver microsomes are vesicles of endoplasmic reticulum, rich in cytochrome P450 enzymes.)

Setting [5] is: combo solution with osimertinib, read-out: Half-life in cysteine solution, Deuterated (t½ h) (converted).

Where two headings read alike, the source gives them in different places.

wild-type EGFR, sequence (P00533 25-1210): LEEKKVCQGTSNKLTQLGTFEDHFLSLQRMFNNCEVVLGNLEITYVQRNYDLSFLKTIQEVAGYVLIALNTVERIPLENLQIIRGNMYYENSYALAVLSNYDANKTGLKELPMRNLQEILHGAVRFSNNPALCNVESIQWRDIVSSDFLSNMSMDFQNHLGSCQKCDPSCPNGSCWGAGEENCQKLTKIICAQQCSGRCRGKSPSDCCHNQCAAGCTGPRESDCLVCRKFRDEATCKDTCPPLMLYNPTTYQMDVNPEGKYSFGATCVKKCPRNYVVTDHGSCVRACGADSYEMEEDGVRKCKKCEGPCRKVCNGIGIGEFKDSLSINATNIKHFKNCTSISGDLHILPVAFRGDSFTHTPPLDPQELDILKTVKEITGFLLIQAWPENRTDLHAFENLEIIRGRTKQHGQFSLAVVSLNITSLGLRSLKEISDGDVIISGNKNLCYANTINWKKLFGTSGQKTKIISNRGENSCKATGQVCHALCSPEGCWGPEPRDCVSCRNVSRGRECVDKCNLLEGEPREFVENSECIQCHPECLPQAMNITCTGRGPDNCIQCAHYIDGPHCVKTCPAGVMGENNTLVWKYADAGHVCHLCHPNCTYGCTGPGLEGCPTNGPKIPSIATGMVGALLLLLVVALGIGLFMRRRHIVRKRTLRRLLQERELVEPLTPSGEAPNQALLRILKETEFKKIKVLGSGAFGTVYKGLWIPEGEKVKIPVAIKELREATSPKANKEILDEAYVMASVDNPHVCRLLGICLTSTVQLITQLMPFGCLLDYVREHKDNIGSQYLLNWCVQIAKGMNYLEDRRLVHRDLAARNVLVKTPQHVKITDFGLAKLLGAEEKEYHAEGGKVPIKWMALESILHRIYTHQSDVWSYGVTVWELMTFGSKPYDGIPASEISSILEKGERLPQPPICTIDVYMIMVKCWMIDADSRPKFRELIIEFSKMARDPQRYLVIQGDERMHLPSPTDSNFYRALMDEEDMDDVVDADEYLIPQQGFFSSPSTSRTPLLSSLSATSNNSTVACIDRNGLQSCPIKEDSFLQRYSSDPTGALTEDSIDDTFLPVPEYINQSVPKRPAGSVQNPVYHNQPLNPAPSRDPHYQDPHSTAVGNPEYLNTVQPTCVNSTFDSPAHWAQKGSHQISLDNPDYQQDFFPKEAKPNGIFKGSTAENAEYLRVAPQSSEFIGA

`C=CC(=O)Nc1cc(Nc2nccc(-c3cn(C)c4ccccc34)n2)c(OC)cc1N(C)CCNC` [AZ7550]: the “affinity towards wild-type EGFR” value at wild-type EGFR is listed as “low affinity towards wild-type EGFR”.

In the case of `C=CC(=O)Nc1cc(Nc2nccc(-c3cn(C)c4ccccc34)n2)c(OC)cc1N(C)CCN(C)C` [Osimertinib, N-(2-{2-dimethylaminoethyl-methylamino}-4-methoxy-5-{[4-(1-methylindol-3-yl)pyrimidin-2-yl]amino}phenyl)prop-2-enamide], the cell viability entry (in series [1]; with HepG2 hepatoma cells) was “did not affect the viability of cells” each time. For the same compound, in series [2], the AUC(0-t) (usually the area under the concentration-time curve up to a stated or last time point) turned out to be 654 ng·h/mL. For the same compound, the half-life (commonly the time needed for the level to fall by half in the phase considered) in series [3] (reference osimertinib in combo solution with the deuterated compound, read-out: Half-life in cysteine solution, Reference (t½ h) (converted)) was 5.41 h.

Turning to `[2H]C([2H])=C([2H])C(=O)Nc1cc(Nc2nccc(-c3cn(C([2H])([2H])[2H])c4ccccc34)n2)c(OC)cc1N(C([2H])([2H])[2H])C([2H])([2H])C([2H])([2H])N(C([2H])([2H])[2H])C([2H])([2H])[2H]` [D19-osimertinib], in series [4], the “difference between the concentrations of Osimertinib and the deuterated compound (percentage remaining)” value is on record as around 28%. In addition, in series [3] (setting [5]), the half-life was 2.75 h. Further, the “Improvement (%) of t½ in cysteine solution” value (“Improvement (%) of t½” for short) in series [3] is 43%.

In the case of `[2H]C([2H])([2H])N(c1cc(OC)c(Nc2nccc(-c3cn(C([2H])([2H])[2H])c4ccccc34)n2)cc1NC(=O)C=C)C([2H])([2H])C([2H])([2H])N(C([2H])([2H])[2H])C([2H])([2H])[2H]` [D16-osimertinib], the “difference between the concentrations of Osimertinib and the deuterated compound (percentage remaining)” value in series [4] is reported as around 26%.

Take `[2H]C([2H])=C([2H])C(=O)Nc1cc(Nc2nccc(-c3cn(C([2H])([2H])[2H])c4ccccc34)n2)c(OC)cc1N(C)CCN(C)C` [D6-osimertinib]: the half-life in series [3] (setting [5]) was 4.56 h. For the same compound, the “Improvement (%) of t½” value in series [3] worked out at 23%.

For `[2H]C([2H])=C([2H])C(=O)Nc1cc(Nc2nccc(-c3cn(C)c4ccccc34)n2)c(OC)cc1N(C)CCN(C)C` [D3-osimertinib], in series [3] (setting [5]), the half-life was 4.05 h. In series [3], the “Improvement (%) of t½” value was found to be 33%.

The values above are taken from patent US9968606B2, “Deuterated compounds for treating cancer and related diseases and conditions, and compositions and methods thereof” (NeuForm Pharmaceuticals, Inc., priority 2015, dated 2018).
